Our source for the EC50 values is US20250059183A1, “PYRIDINE[4,3-D]PYRIMIDINE COMPOUND AS TLR7/8 AGONIST” (SHANGHAI VISONPHARMA CO., LTD., priority 2021, published 2025).

In one assay the target is T1, human TLR7 (Homo sapiens, UniProt Q9NYK1).
T1 construct: host or cells: HEK-Blue hTLR7 (HEK293-derived reporter cells)
T1 sequence (Q9NYK1 27-1049): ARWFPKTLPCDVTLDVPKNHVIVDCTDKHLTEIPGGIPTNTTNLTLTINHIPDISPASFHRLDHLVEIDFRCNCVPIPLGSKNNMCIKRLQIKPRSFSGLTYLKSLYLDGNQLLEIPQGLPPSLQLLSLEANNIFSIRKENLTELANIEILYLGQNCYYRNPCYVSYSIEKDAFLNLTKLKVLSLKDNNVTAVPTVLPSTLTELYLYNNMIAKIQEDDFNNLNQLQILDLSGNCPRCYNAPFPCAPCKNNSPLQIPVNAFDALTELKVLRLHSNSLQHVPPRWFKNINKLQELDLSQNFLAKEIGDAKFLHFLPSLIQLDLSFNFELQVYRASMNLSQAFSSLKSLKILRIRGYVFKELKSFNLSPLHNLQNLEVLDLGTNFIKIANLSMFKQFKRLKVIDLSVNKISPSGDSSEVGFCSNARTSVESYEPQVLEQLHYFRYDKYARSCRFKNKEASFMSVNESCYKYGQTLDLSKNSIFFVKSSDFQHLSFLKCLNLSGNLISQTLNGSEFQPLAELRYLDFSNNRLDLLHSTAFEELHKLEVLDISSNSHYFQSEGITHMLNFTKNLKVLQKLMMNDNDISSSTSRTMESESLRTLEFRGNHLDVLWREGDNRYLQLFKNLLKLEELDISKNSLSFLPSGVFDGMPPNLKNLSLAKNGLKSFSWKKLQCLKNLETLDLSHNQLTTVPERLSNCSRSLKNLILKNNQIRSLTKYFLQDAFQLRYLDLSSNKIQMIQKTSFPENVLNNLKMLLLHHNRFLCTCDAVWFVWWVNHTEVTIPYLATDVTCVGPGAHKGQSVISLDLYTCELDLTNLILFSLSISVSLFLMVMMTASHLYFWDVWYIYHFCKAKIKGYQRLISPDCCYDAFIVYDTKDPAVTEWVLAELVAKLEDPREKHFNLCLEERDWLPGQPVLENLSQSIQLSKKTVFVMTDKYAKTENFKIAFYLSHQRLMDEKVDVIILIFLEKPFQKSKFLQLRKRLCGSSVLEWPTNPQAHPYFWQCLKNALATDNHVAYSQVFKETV
The assay is described as follows: HEK-Blue hTLR7 SEAP reporter gene agonist assay. It is filed as cell-based. Conditions: HEK-Blue hTLR7 cells, 16 to 22 hours incubation. The protocol:
HEK-Blue™ cells that stably express human TLR7 or TLR8 are used to evaluate the agonistic activity of the compounds on TLR7 or TLR8, which is determined by the induction of the expression of SEAP reporter gene under the control of minimum IFN-β promoter fusion to 5×NF-κB and AP-1 binding sites. The assay is conducted as below:
HEK-Blue™ hTLR7 (Invivogen, 80,000 cells per well) or HEK-Blue™ hTLR8 (Invivogen, 60,000 cells per well) were added to the 96-well cell culture plate, followed by adding of the test compound. The final concentration of the test compound in the medium ranged from […], and was incubated for 16 to 22 hours. According to the manufacturer's instructions, the HEK-Blue assay reagent Quanti-blue (Invivogen) was used to measure SEAP levels in cell media. Optical density at 650 nm (OD650) was measured by Neo2 multifunction plate reader (Bio-tek). The half effective concentration (EC50) was calculated using GraphPad Prism.
In general terms: In a reporter assay the amount or activity of a reporter protein is the signal.

The next assay has as its target T2, human TLR8 (Homo sapiens, UniProt Q9NR97).
T2 construct: host or cells: HEK-Blue hTLR8 (HEK293-derived reporter cells)
T2 sequence (Q9NR97 27-1041): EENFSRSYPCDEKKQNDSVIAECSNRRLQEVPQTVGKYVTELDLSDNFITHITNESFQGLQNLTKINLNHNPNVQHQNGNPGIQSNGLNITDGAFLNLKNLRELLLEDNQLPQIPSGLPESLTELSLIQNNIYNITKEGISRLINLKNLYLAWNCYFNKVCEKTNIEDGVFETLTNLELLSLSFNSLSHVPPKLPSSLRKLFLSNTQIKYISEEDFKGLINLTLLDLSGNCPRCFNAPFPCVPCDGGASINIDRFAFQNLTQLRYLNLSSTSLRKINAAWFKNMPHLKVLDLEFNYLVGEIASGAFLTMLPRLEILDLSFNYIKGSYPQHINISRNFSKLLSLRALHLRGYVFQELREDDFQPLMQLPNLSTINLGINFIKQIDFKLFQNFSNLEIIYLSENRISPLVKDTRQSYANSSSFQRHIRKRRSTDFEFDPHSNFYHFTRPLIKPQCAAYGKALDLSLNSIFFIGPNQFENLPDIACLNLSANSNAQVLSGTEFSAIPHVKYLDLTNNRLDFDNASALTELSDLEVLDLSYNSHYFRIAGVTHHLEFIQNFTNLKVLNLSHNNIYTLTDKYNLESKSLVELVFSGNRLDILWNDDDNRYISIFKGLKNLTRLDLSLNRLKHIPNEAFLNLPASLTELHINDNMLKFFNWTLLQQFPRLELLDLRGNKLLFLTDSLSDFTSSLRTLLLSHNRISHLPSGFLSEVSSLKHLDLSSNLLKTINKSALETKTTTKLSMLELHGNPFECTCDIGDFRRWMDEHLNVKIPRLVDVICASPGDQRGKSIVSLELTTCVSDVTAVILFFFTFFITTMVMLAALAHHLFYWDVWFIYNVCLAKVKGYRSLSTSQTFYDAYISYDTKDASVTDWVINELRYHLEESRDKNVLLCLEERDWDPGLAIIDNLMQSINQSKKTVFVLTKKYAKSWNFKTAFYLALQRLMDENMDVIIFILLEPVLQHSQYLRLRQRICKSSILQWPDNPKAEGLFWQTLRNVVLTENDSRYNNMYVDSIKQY
In words: HEK-Blue hTLR8 SEAP reporter gene agonist assay. It is filed as cell-based. The note with it: HEK-Blue hTLR8 cells, 16 to 22 hours incubation. Put shortly:
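HEK-Blue cells stably expressing human TLR7 or TLR8 carry a SEAP reporter driven by a minimal IFN-β promoter fused to 5×NF-κB and AP-1 sites. Compounds at […] final, 16 to 22 h. SEAP in the medium measured with Quanti-blue at OD650, and EC50 derived.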

Take `CCC[C@@H](C)Nc1nc(N)nc2ccn(Cc3ccc(CN4CCN(CCO)CC4)cc3)c(=O)c12` [Compound I-148, (R)-2-amino-6-(4-((4-(2-hydroxyethyl)piperazin-1-yl)methyl)benzyl)-4-(pentan-2-ylamino)pyrido[4,3-d]pyrimidin-5(6H)-one]: the EC50 at human TLR7 and at human TLR8 was 40 nM throughout.
Take `CCCCNc1nc(N)nc2ccn(Cc3ccc(CN4CCCC4)cc3F)c(=O)c12` [Compound I-51, 2-amino-4-(butylamino)-6-(2-fluoro-4-(pyrrolidin-1-ylmethyl)benzyl)pyrido[4,3-d]pyrimidin-5(6H)-one]: the EC50 (in general, the concentration at which the effect is half-maximal) at human TLR7 is 98 nM; on human TLR8 it was 88 nM.
On to `CCC[C@@H](C)Nc1nc(N)nc2ccn(Cc3ccc(C(=O)N4CCN(CCO)CC4)cc3OC)c(=O)c12` [Compound I-123, (R)-2-amino-6-(4-(4-(2-hydroxyethyl)piperazine-1-carbonyl)-2-methoxybenzyl)-4-(pentan-2-ylamino)pyrido[4,3-d]pyrimidin-5(6H)-one], for which the EC50 at human TLR7 is 23 nM; on human TLR8, 34 nM.
Taken in the same sequence, the figures for `CCCC(CCOC(=O)C(F)(F)F)Nc1nc(N)nc2ccn(Cc3ccc(CN4CCCC4)cc3)c(=O)c12` (centres unmarked) [Compound I-96, 3-((2-amino-5-oxo-6-(4-(pyrrolidin-1-ylmethyl)benzyl)-5,6-dihydropyrido[4,3-d]pyrimidin-4-yl)amino)hexyl 2,2,2-trifluoroacetate] were 50 nM and 31 nM.
Consider `CCC[C@@H](CO)Nc1nc(N)nc2ccn(Cc3ccc(CN4CCN(C)CC4)cc3OC)c(=O)c12` [Compound I-162, (S)-2-amino-4-((1-hydroxypentan-2-yl)amino)-6-(2-methoxy-4-((4-methylpiperazin-1-yl)methyl)benzyl)pyrido[4,3-d]pyrimidin-5(6H)-one], for which the EC50 on human TLR7 worked out at 20 nM; on human TLR8, 10 nM.
Turning to `CCC[C@@H](C)Nc1nc(N)nc2ccn(Cc3ccc(CN(C)CCO)cc3OC)c(=O)c12` [Compound I-160, (R)-2-amino-6-(4-(((2-hydroxyethyl)(methyl)amino)methyl)-2-methoxybenzyl)-4-(pentan-2-ylamino)pyrido[4,3-d]pyrimidin-5(6H)-one], the EC50 at human TLR7 and on human TLR8 was 20 nM each time.
Consider `CCCCNc1nc(N)nc2ccn(Cc3ccc(C(=O)N4CCNCC4)cc3)c(=O)c12` [Compound I-14, 2-amino-4-(butylamino)-6-(4-(piperazine-1-carbonyl)benzyl)pyrido[4,3-d]pyrimidin-5(6H)-one], for which the EC50 at human TLR7 is 85 nM; at human TLR8, 77 nM.
The matching figures for `CCCCNc1nc(N)nc2ccn(Cc3ccc(CCN(C)C)cc3)c(=O)c12` [Compound I-90, 2-amino-4-(butylamino)-6-(4-(2-(dimethylamino)ethyl)benzyl)pyrido[4,3-d]pyrimidin-5(6H)-one]: 68 nM and 47 nM.
Taken in the same sequence, the figures for `CCC[C@@H](CO)Nc1nc(N)nc2ccn(Cc3ccc(CN4CCCC4)cc3OC)c(=O)c12` [Compound I-158, (S)-2-amino-4-((1-hydroxypentan-2-yl)amino)-6-(2-methoxy-4-(pyrrolidin-1-ylmethyl)benzyl)pyrido[4,3-d]pyrimidin-5(6H)-one] were 10 nM and 4 nM.
The matching figures for `CCC[C@@H](CO)Nc1nc(N)nc2ccn(Cc3ccc(C(=O)N4CCN(C)CC4)cc3OC)c(=O)c12` [Compound I-212, (S)-2-amino-4-((1-hydroxypentan-2-yl)amino)-6-(2-methoxy-4-(4-methylpiperazine-1-carbonyl)benzyl)pyrido[4,3-d]pyrimidin-5(6H)-one]: 60 nM and 4 nM.
In the case of `CCCCNc1nc(N)nc2ccn(Cc3ccc(C(=O)N4CCN(CCO)CC4)cc3OC)c(=O)c12` [Compound I-120, 2-amino-4-(butylamino)-6-(4-(4-(2-hydroxyethyl)piperazine-1-carbonyl)-2-methoxybenzyl)pyrido[4,3-d]pyrimidin-5(6H)-one], the EC50 was 46 nM at human TLR7 and 53 nM at human TLR8.
Taken in the same sequence, the figures for `CCC[C@@H](C)Nc1nc(N)nc2ccn(Cc3ccc(CN4CC5(COC5)C4)cc3)c(=O)c12` [Compound I-150, (R)-6-(4-((2-oxa-6-azaspiro[3.3]heptan-6-yl)methyl)benzyl)-2-amino-4-(pentan-2-ylamino)pyrido[4,3-d]pyrimidin-5(6H)-one] were 40 nM and 30 nM.
As to `CCC[C@@H](C)Nc1nc(N)nc2ccn(Cc3ccc(CN4CCCC4)cc3Cl)c(=O)c12` [Compound I-152, (R)-2-amino-6-(2-chloro-4-(pyrrolidin-1-ylmethyl)benzyl)-4-(pentan-2-ylamino)pyrido[4,3-d]pyrimidin-5(6H)-one], the 50% effective concentration (EC50) came out at 80 nM at human TLR7 and 110 nM on human TLR8.
The matching figures for `CCC[C@@H](C)Nc1nc(N)nc2ccn(Cc3ccc(CN4CCN(CCCO)CC4)cc3OC)c(=O)c12` [Compound I-216, (R)-2-amino-6-(4-((4-(3-hydroxypropyl)piperazin-1-yl)methyl)-2-methoxybenzyl)-4-(pentan-2-ylamino)pyrido[4,3-d]pyrimidin-5(6H)-one]: 63 nM and 40 nM.
Regarding `CCC[C@@H](C)Nc1nc(N)nc2ccn(Cc3ccc(OCCNC)nc3)c(=O)c12` [Compound I-153, (R)-2-amino-6-((6-(2-(methylamino)ethoxy)pyridin-3-yl)methyl)-4-(pentan-2-ylamino)pyrido[4,3-d]pyrimidin-5(6H)-one], the figures for the EC50 on human TLR7 and at human TLR8 were 90 nM and 40 nM, respectively.
Taken in the same sequence, the figures for `CCCCNc1nc(N)nc2cc(C)n(Cc3ccc(CN4CCCC4)cc3)c(=O)c12` [Compound I-187, 2-amino-4-(butylamino)-7-methyl-6-(4-(pyrrolidin-1-ylmethyl)benzyl)pyrido[4,3-d]pyrimidin-5(6H)-one] were 145 nM and 64 nM.
